From patent US9867814B2, “Use of non-peptidic NK1 receptor antagonists for the production of apoptosis in tumour cells” (NK-1 IP LIMITED, priority 2004, dated 2018)

Tests used:
Type in all cases: cell-based, human
A-204 = test: MTS cell proliferation assay, rhabdomyosarcoma line A-204; details: A-204 cells
Experimental: Cellular Lines Related to Human Rhabdomyosarcoma A-204 (DSMZ) were Used.
This cellular line was maintained in a culture of Mc-Co-supplemented with 10% fetal bovine serum according to the established cellular culture conditions of the ATCC.
(§1) The cellular line was cultivated in flasks of 75 ml (Falcon, Germany). Half were renewed every two days and the cells were treated with Trypsin (0.05% and 0.02% EDTA without Ca2+ and Mg2+) every six days. The cells were incubated at a temperature of 37 C in a humidification of (95% air/5% CO2). […]
The cell proliferation was evaluated using the MTS method [3-(4,5-dimethylthiazol-2il)-5-(3-carboxymethoxyphenyl) 2-(4-sulfophenyl)-2H-tetrazolium], following the instructions of use by the manufacturer (CellTiter 96 Aqueous One Solution Cell Proliferation Assay, Promega, USA).
(§2) During the experiment, the cultivated cells were broken apart every 4-5 days by way of trypsinization and to test the cell viability the blue trypan method was used. The cells were quantified and cultured in plates of 96 wells each. […]
In T0, 20 μl of MTS was immediately added to the wells and were read 90 minutes later. […]
To study the proliferation of the cells 20 μl of MTS reactor was added to each well (T1, T2) 90 min., before reading the samples with the plate reader (TECAN Spectra Classic) at 492 nm. […]

COLO-677 = test: MTS cell proliferation assay, small cell lung cancer line COLO-677; details: COLO-677 cells
Experimental: Cellular lines related with small cell lung cancer COLO-677 (DSMZ) was used. This cellular line was maintained in a culture of RPMI 1640 supplemented with 10% fetal bovine serum according to the established cellular culture conditions of the ATCC.
as §1
(§3) The cell proliferation was evaluated using the MTS method [3-(4,5-dimethylthiazol-2-il)-5-(3-carboxymethoxyphenyl) 2-(4-sulfophenyl)-2H-tetrazolium], following the instructions of use by the manufacturer (CellTiter 96 Aqueous One Solution Cell Proliferation Assay, Promega, USA).
as §2
In T0, 20 μl of MTS was immediately added to the wells and they were read 90 minutes later. […]
To study the proliferation of the cells 20 μL of MTS reactor was added to each well (T1, T2) 90 min., before reading the samples with the plate reader (TECAN Spectra Classic) at 492 nm. […]

CA-46 = test: MTS cell proliferation assay, Burkitt's lymphoma line CA-46; details: CA-46 cells
Experimental: Cellular lines related with Burkitt's human lymphoma The cellular line of Burkitt's human lymphoma was used with CA-46 (DSMZ).
This cellular line was maintained in a culture of RPMI 1640 supplemented with 10% fetal bovine serum according to the established cellular culture conditions of the ATCC.
The cellular lines were cultivated in flasks of 75 ml (Falcon, Germany). Half was renewed every two days and the cells were treated with Trypsin (0.05% and 0.02% EDTA […]) every six days. The cells were incubated at 37 C in a humidification of (95% air/5% CO2). […]
as §3
The cells were quantified and cultured in plates of 96 wells each. […]
In T0, 20 μL of MTS was immediately added to the wells and they were read 90 minutes later. […]
To study the proliferation of the cells 20 µl of reactive MTS was added to each well (T1, T2) 90 min before reading the samples with the plate reader (TECAN Spectra Classic) at 492 nm. The quantity of reactive MTS was measured by optical density, being directly proportional in number of live cells. […]

FC(F)(F)c1cc(CO[C@H]2CCCN[C@H]2c2ccccc2)cc(C(F)(F)F)c1 [L-733,060, (2S,3S) 3-([3,5-Bis(trifluoromethyl)phenyl]metoxi)-2-phenylpiperidine]
cellular growth (A-204; at the highest concentrations (2.5 μM to 20 μM tested), 36 hrs. and 72 hrs. incubation): Cellular growth is inhibited
apoptosis (A-204; at the maximum dose (2.5 μM to 20 μM tested)): apoptosis
cellular growth (COLO-677; at the highest concentrations (5 μM to 20 μM tested), 40 hrs. and 96 hrs. incubation): Cellular growth is inhibited
apoptosis (COLO-677; at the maximum dose (5 μM to 20 μM tested)): apoptosis
cellular growth (CA-46; at the highest concentrations (2.5 μM to 25 μM tested), 35 hrs. and 72 hrs. incubation): inhibition in cellular growth was produced
apoptosis (CA-46; at the maximum dose (2.5 μM to 25 μM tested)): apoptosis
